What all share (assay): biochemical
Common to all, as to type: binding

Experiment [1] deals with HLA-DR DRB1*0101 (DR1) (Homo sapiens, UniProt P01903+P01911, A100R/D57E/F55L/F60I/F76Y/I96L/L162R/M171V/P40L/Q125E/R42F/V115G/Y59C). Particulars: DRB1 *0101.
For experiment [2], the target named is HLA-DR DRB1*0301 (DR3) (Homo sapiens, UniProt P01903+P01911, A100K/A102G/A103R/A169T/F55Y/I96L/K41T/L162R/M171V/P40S/Q125H/Q178H/Q39Y/R42S/S66N/T106N/T262R/W38E/Y61H).
For experiment [3], the target named is HLA-DR DRB1*0401 (DR4) (Homo sapiens, UniProt P01903+P01911, A100K/A169T/F76Y/I96L/K127E/L162R/M171V/N62H/P40V/Q125Y/R42H/S133A/S149N/S66Y/V115G/V209L/W38E). Particulars: DRB1 *0401.
The target of experiment [4] is HLA-DR DRB1*0701 (DR7) (Homo sapiens, UniProt P01903+P01911, A100R/A102G/A103Q/D57E/D86V/E43K/F76Y/K127E/L162R/M171V/P40G/Q125H/Q99D/R33Q/R42Y/R54Q/S133A/S66F/T210M/V115G/Y107V/Y59L/Y89S). Particulars: DRB1 *0701.
Experiment [5] addresses HLA-DR DRB1*0802 (DR8) (Homo sapiens, UniProt P01903+P01911, A100R/A103L/A169T/F76Y/H45Y/I96F/K41T/L162R/M171V/P40S/Q125H/Q178H/Q39Y/Q99D/R218S/R42G/S66Y/V115G/W38E).
Experiment [6] has as its target HLA-DR DRB1*0901 (DR9) (Homo sapiens, UniProt P01903+P01911, A100R/A103E/D57H/D86V/F55Y/F60I/F76Y/I96F/K127E/L162R/M171V/P40D/Q125H/Q99R/R33Q/R42F/S133A/S66N/T210M/V115G/W38K/Y107V/Y59G/Y89S). The note with it: DRB1 *0901.
Experiment [7] has as its target HLA-DR DRB1*1101 (DR11) (Homo sapiens, UniProt P01903+P01911, A100R/A169T/A87E/I96F/K41T/L162R/M171V/P40S/Q125H/Q178H/Q39Y/Q99D/R42S/S66Y/T262R/V115G/W38E). The note with it: DRB1 *1101.
The target in experiment [8] is HLA-DR DRB1*1302 (DR13) (Homo sapiens, UniProt P01903+P01911, A100E/A169T/K41T/L162R/M171V/P40S/Q125H/Q178H/Q39Y/Q99D/R42S/S66N/T262R/V115G/W38E/Y61H). Particulars: DRBI *1302.
Experiment [9] deals with HLA-DR DRB1*1501 (DR15) (Homo sapiens, UniProt P01903+P01911). The note with it: DRBI *1501.
The target in experiment [10] is HLA-DR DRB3*0101 (DR52) (Homo sapiens, UniProt P01903+P79483).
Experiment [11] addresses HLA-DR DRB4*0101 (DR53) (Homo sapiens, UniProt P01903+P13762, G164S). Particulars: DRB4 *0101.
The target of experiment [12] is HLA-DR DRB5*0101 (DR51) (Homo sapiens, UniProt P01903+Q30154). The note with it: DRB5 *0101.

Results on four compounds are retold here after US20060079453A1, “Hla binding peptides and their uses” (priority 2002, published 2006).

Molecules are shown by their SMILES. A value given as a limit tells only on which side of the number the result lay.

Sequence of HLA-DR DRB1*0301 (DR3) (P01903 26-254 limits assumed, other chains not shown): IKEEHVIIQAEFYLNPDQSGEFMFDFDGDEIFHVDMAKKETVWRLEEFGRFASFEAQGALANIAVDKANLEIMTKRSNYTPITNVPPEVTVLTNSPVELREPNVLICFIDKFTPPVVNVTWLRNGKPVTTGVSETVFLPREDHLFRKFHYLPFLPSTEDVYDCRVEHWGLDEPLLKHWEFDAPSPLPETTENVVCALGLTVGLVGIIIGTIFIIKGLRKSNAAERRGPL
Sequence of HLA-DR DRB1*1302 (DR13) (P01903 26-254 limits assumed, other chains not shown): as above
Sequence of HLA-DR DRB1*1101 (DR11) (P01903 26-254 limits assumed, other chains not shown): as above

Broadly, the IC50 is the point on the concentration scale where inhibition reaches its midpoint. High values mean weaker potency in that assay, low ones greater potency in that assay. `CSCC[C@H](NC(=O)[C@H](CC(C)C)NC(=O)[C@H](CC(=O)O)NC(=O)[C@@H](N)Cc1c[nH]cn1)C(=O)N[C@@H](CC(C)C)C(=O)N[C@@H](CC(C)C)C(=O)N[C@@H](CCCNC(=N)N)C(=O)N[C@@H](CC(C)C)C(=O)N[C@@H](CO)C(=O)N[C@@H](CCC(=O)O)C(=O)N1CCC[C@H]1C(=O)N[C@@H](C)C(=O)N[C@@H](CCC(=O)O)C(=O)N[C@@H](CC(C)C)C(=O)N[C@H](C(=O)O)[C@@H](C)O`: the IC50 was determined as 62 nM in experiment [1]; 2870 nM in [2]; 6190 nM in [3]; 152 nM in experiment [4]; 3910 nM in experiment [5]; 22 nM in experiment [6]. Further, the IC50 in experiment [7] came to 2140 nM; in [8] it was 2.3 nM; in experiment [9], 662 nM; in experiment [10] it was 5310 nM; in experiment [11] it was 45 nM; in experiment [12], 10500 nM.

Regarding `CC[C@H](C)[C@H](NC(=O)[C@H](CCCCN)NC(=O)[C@H](CCSC)NC(=O)[C@H](CC(=O)O)NC(=O)[C@H](CCCNC(=N)N)NC(=O)[C@H](CCC(=O)O)NC(=O)[C@H](CC(C)C)NC(=O)[C@H](CCCCN)NC(=O)[C@H](Cc1ccccc1)NC(=O)[C@@H](N)Cc1ccccc1)C(=O)N[C@@H](CC(N)=O)C(=O)N[C@@H](CS)C(=O)N[C@@H](CO)C(=O)NCC(=O)N[C@@H](CCCCN)C(=O)O`, the IC50 in experiment [1] is 4420 nM; in experiment [2], 121 nM; in experiment [3] it was 483 nM; in experiment [4], above 23100 nM; in [5], 8110 nM; in [6] it was above 52300 nM. The IC50 in [7] was 9690 nM; in experiment [8] it was 382 nM; in experiment [9], above 3490 nM; in experiment [10], 4920 nM; in experiment [11], 98 nM; in experiment [12], 3800 nM.

On to `CC[C@H](C)[C@H](NC(=O)[C@H](CO)NC(=O)[C@H](CC(N)=O)NC(=O)[C@H](C)NC(=O)[C@H](CC(C)C)NC(=O)[C@H](CCC(=O)O)NC(=O)[C@H](Cc1ccccc1)NC(=O)[C@@H](NC(=O)[C@H](CCSC)NC(=O)CN)C(C)C)C(=O)N[C@H](C(=O)N[C@@H](CC(C)C)C(=O)N1CCC[C@H]1C(=O)N[C@@H](Cc1ccccc1)C(=O)N[C@@H](CC(=O)O)C(=O)O)C(C)C`, for which the IC50 was 15 nM in experiment [1]; 4600 nM in experiment [2]; 230 nM in experiment [3]; 30 nM in [4]; 5000 nM in experiment [5]; 81 nM in experiment [6]. The IC50 in experiment [7] was above 50000 nM; in [8], 12 nM; in [9], 83 nM; in [10], 234 nM; in experiment [11] it was 4150 nM; in experiment [12] it was 903 nM.

As to `CSCC[C@H](NC(=O)[C@H](CC(C)C)NC(=O)[C@@H]1CCCN1C(=O)[C@@H](NC(=O)[C@@H](N)CS)[C@@H](C)O)C(=O)N[C@@H](Cc1ccc(O)cc1)C(=O)N[C@@H](CO)C(=O)N[C@@H](CC(C)C)C(=O)N[C@H](C(=O)N[C@@H](Cc1c[nH]cn1)C(=O)N[C@@H](CC(N)=O)C(=O)N[C@@H](CC(C)C)C(=O)N[C@H](C(=O)N[C@@H](CCCCN)C(=O)N[C@@H](CCC(=O)O)C(=O)O)[C@@H](C)O)C(C)C`, the IC50 stood at 93 nM in [1]; 19400 nM in experiment [2]; 140 nM in [4]; 223 nM in [5]; 249 nM in experiment [6]; 590 nM in [7]. Also, the IC50 in [8] is 260 nM; in experiment [9], 426 nM; in [10], 18300 nM; in [11], 58 nM; in [12] it was 36 nM.
